Experimental data published in US9693982B2, “Composition for amelioration of hypoalbuminemia” (OTSUKA PHARMACEUTICAL FACTORY, INC., priority 2010, dated 2017).

System: albumin mRNA
Assay: Albumin mRNA expression of cultured human hepatocytes (Experiment 1, real time RT-PCR)
Format: cell-based
Settings: for Expression level of albumin mRNA (mean ± SD): 24 hours after addition, ratio based on HPRT1 mRNA (regarded as 1), human hepatocytes Lot 100, triplicate; for Effect on albumin mRNA expression level (in words): human hepatocytes, 20 mM, 60 mM
Method: In this test, human primary cultured hepatocytes were cultured by each test solution to check a change of albumin mRNA expressional potency and a change of secretion level of albumin. The test was performed as follows.
Albumin mRNA and HPRT1 mRNA were measured. The nucleotide sequences of albumin and HPRT1 are registered in the GenBank as follows and each nucleotide sequence follows the sequence registered.
Note that, HPRT1, which is a house keeping gene serving as a control, was measured in the same test. The sequences of primers and probes used in measurement of albumin are made public in Nishimura, M., Yoshitsugu, H., Yokoi, T., Tateno, C., Kataoka, M., Horie, T., Yoshizato, K. and Naito, S.: Evaluation of mRNA expression of human drug-metabolizing enzymes and transporters in chimeric mouse with humanized liver. Xenobiotica, 35: 877-890 (2005). Furthermore, the sequences of primers and probes used in measurement of HPRT1 are made public in Nishimura, M., Naito, S. and Yokoi, T.: Tissue-specific mRNA expression profiles of human nuclear receptor subfamilies. Drug Metab. Pharmacokinet., 19: 135-149 (2004).
Furthermore, mRNA was quantified by use of the primer pairs and probe represented by individual sequences (the position of initiation codon follows the each nucleotide sequence registered) shown in the following Table 1 and in accordance with RT-PCR (Real-time quantitative reverse transcription-polymerase reaction). Each of the primers and probe was prepared by an automatic DNA synthesizer.
As the test solution of the Livact composition, a Livact composition was dissolved such that the concentrations of Ile, Leu, and Val became 13.8 mM, 27.7 mM, and 18.5 mM, respectively after blending (60 mM as the concentration of the Livact composition test solution). Note that, in the dissolution procedure, a Livact composition was dissolved in Buffer A and then a medium was added in an amount 1/10 as low as that of Buffer A.
As an Ile, Leu or Val solution, Ile, Leu or Val was dissolved so as to have a concentration of 60 mM. Note that, in the dissolution procedure, Ile, Leu or Val was dissolved in Buffer A and then a medium was added in an amount 1/10 as low as that of Buffer A.
The Livact composition test solution prepared in Section (2-3) and Ile, Leu or Val solution prepared in Section (2-4) were diluted 3 fold with Buffer B to prepare a 20 mM solution.
According to a method of Nishimura et al. (Nishimura, M., Yoshitsugu, H., Naito, S. and Hiraoka, I.: Evaluation of gene induction of drug-metabolizing enzymes and transporters in primary culture of human hepatocytes using high-sensitivity real-time reverse transcription PCR. Yakugaku Zasshi, 122: 339-361 (2002)), 1×10^5 cells/400 μL was dispensed in each well of a 24 well plate and cultured in a CO2 incubator. After 3 hours, medium exchange was performed. Further after 21 hours (24 hours after inoculation), medium exchange was performed. Thereafter, the medium was exchanged every 24 hours. Note that, the amount of liquid medium to be exchanged was set at 400 μL/well. Furthermore, exchange to each test solution was performed at the after 48 hours at which medium exchange was performed.
After human hepatocytes (1×10^5 viable cells/0.4 mL/well) were inoculated, medium exchange was performed 3 hours and 24 hours after inoculation. Note that, the viability at the inoculating time was 90.4% (Lot 100). Then, 48 hours after inoculation, a test substance was added and 24 hours after addition of the test substance was initiated, Total RNA was extracted (using Rneasy Mini Kit). Quantification of mRNA of albumin and HPRT1 was performed by real time RT-PCR. Note that, HPRT1, which is a house keeping gene, was used as an internal standard.
After the medium was suctioned, Total RNA was extracted by use of QIA shredder and Rneasy Mini Kit. Now, a preparation method using the Kit will be described below. […]

## CC(C)C[C@H](N)C(=O)O [Leu, Leucine]
20 mM total test substance
  Expression level of albumin mRNA (mean ± SD): 215 ± 63
60 mM total test substance
  Expression level of albumin mRNA (mean ± SD): 255 ± 53
  Effect on albumin mRNA expression level (in words): increases in an additive manner

## CC(C)[C@H](N)C(=O)O [Val, Valine, reference compound]
20 mM total test substance
  Expression level of albumin mRNA (mean ± SD): 127 ± 17
60 mM total test substance
  Expression level of albumin mRNA (mean ± SD): 118 ± 10

## CC[C@H](C)[C@H](N)C(=O)O [Ile, Isoleucine]
20 mM total test substance
  Expression level of albumin mRNA (mean ± SD): 174 ± 33
60 mM total test substance
  Expression level of albumin mRNA (mean ± SD): 222 ± 27
  Effect on albumin mRNA expression level (in words): increases in an additive manner
